Here are results for 21 compounds from patent US9540373B2, “Substituted spirocycles” (Boehringer Ingelheim International GmbH, priority 2014, dated 2017).

The structures appear in SMILES notation. Read-outs that look alike come from different tables or passages of the source.

For series [1], the target named is recombinant human DPPI (Cathepsin C) (Homo sapiens (Human), UniProt P53634). The experiment in a line: Inhibition of human DPPI (Cathepsin C). It is filed as biochemical. Here is the method:
Inhibition of Human DPPI (Cathepsin C)
The analysis of the data was performed by calculating the percentage of fluorescence in the presence of test compound in comparison to the fluorescence of the vehicle control after 20 subtracting the background fluorescence using the following formula: (RFU(sample)−RFU(background))*100/(RFU(control)−RFU(background))
Data from these calculations were used to generate IC50 values for inhibition of DPPI, respectively.

Series [2] relates to neutrophil elastase activity in U937 cells. The experiment in a line: Determination of neutrophil elastase activity in U937 cytosolic lysate preparation after incubation with test compound. It is filed as cell-based. The settings on record: Homo sapiens, U-937; U937 cells incubated 48 hours with compound, NE activity in lysate; read-out: Reduction of NE-activity in U937 cells IC50. The method, then: Determination of Neutrophil Elastase Activity in U937 Cytosolic Lysate Preparation after Incubation with Test Compound Materials:
24 well Nunclon cell culture plates (No. 142475) and 96 well plates (No. 267245) were from Nunc.
Dimethylsulfoxid (DMSO) was from Sigma (Prod. No. D8418). Nonidet-P40 (NP40) was from USBiological (Prod. No. N3500)
Substrate, specific for Neutrophil elastase, was from Bachem (MeOSuc-Ala-Ala-Pro-Val-AMC; Prod. No. I-1270).
Human neutrophil elastase was from Calbiochem (Prod. No. 324681)
Tris-buffer (100 mM Tris; 1M NaCl; pH 7.5)
Tris-buffer+HSA 0.1%; Human Serum Albumin from Calbiochem (Cat#. 126658)
Serine-protease buffer (20 mM Tris; 100 mM NaCl; pH 7.5)+0.1% HSA
Serine protease lysis buffer: 20 mM Tris-HCl; 100 mM NaCl pH 7.5; +0.2% Nonidet-P40;
PBS: phosphate buffered saline, without Ca and Mg, from Gibco
U937 from ECACC (Cat. No. 85011440) cultured in suspension at 37° C. and 5% CO2.
Cell density: 0.2-1 Mio. Cells/ml.
Medium: RPMI1640 GlutaMAX (No. 61870) with 10% FCS from Gibco
Cell Seeding and Treatment:
Compounds in 100% DMSO were diluted in Medium (−FCS) with 10% DMSO and further diluted according to the experiment planned.
20 μl of the compound solution was transferred in the respective wells of the 24 well plate and diluted with 2 ml cell suspension/well containing 1×10^5 cells/ml (final concentration of DMSO=0.1%). Compound dilution factor=100
Compounds (up to 7 concentrations) were tested in triplicates with 3 wells for the DMSO 0.1% control, incubated for 48 hours without medium change at 37° C., 5% CO2 and 95% relative humidity.
Cell Harvesting and Cell Lysate:
Transfer the cell suspension in 2 ml 96 well assay block. Separate cells from medium by centrifugation (500×g; 10 min; RT); discard the supernatant. Resuspend in 1 ml PBS; centrifugation (500×g; 10 min; RT); wash cells twice with PBS. Add 80 μl Serine protease lysis buffer (ice cold) to the cell pellet; resuspend the pellet and store on ice for 10 minutes. Remove debris by centrifugation at 1000×g for 10 min at 4° C. Transfer 80-100 μl lysate supernatant in 96 well plate and store immediately at −80° C.
Neutrophil Elastase Activity Assay:
Frozen lysates were thaw at 37° C. for 10 minutes and stored on ice. Protein content was determined with Bradford protein assay. Lysates were diluted to 0.2-0.5 mg/ml protein in serine protease buffer+HSA.
Standard: NE (100 μg/ml stock solution in Tris-buffer; stored at −80° C.) was diluted in Tris-buffer+HSA to 750 ng/ml, and further serially diluted 1:2 for the standard curve. Buffer, blank, standard and lysate samples were transferred into 384 well plate
Blank: 5 μl Tris-buffer+10 μl Serine protease buffer+5 μl Substrate
Standard: 5 μl Tris-buffer+10 μl NE (diff. conc.)+5 μl Substrate
Lysate: 5 μl Tris-buffer+10 μl Lysat+5 μl Substrate
The increase in fluorescence (Ex360 nm/Em 460 nm) is determined after 30 minutes with a Molecular Device Spectramax M5 Fluorescence Reader. The result is interpolated to ng/mg lysate protein using excel formula functions. Percent inhibition in the compound-treated lysate samples is calculated relative to the DMSO-treated control-sample (100−(compound-sample*100)/control-sample)
A test compound will give values between 0% and 100% inhibition of neutrophil elastase. IC50 is calculated using Graphpad Prism; nonlinear fitting (log(inhibitor) vs. response—Variable slope). The IC50 value is interpolated as the concentration of test compound which leads to a neutrophil elastase activity reduction of 50% (relative to the DMSO-treated control).

A short description of series [3]: Determination of metabolic stability with human liver microsomes. In kind it is in vitro ADME. To be noted: pH 7.6; pooled human liver microsomes, 1 mg/ml protein, 1 μM compound, 37° C., NADPH; read-out: In vitro stability in human liver microsome incubations t1/2. Here is the method: Determination of Metabolic Stability with Human Liver Microsomes
The metabolic degradation of the test compound is assayed at 37° C. with pooled human liver microsomes. The final incubation volume of 100 μl per time point contains TRIS buffer pH 7.6 (0.1 M), magnesium chloride (5 mM), microsomal protein (1 mg/ml) and the test compound at a final concentration of 1 μM. Following a short preincubation period at 37° C., the reactions are initiated by addition of beta-nicotinamide adenine dinucleotide phosphate, reduced form (NADPH, 1 mM) and terminated by transferring an aliquot into acetonitrile after different time points. Additionally, the NADPH-independent degradation is monitored in incubations without NADPH, terminated at the last time point. The [%] remaining test compound after NADPH independent incubation is reflected by the parameter c (control) (metabolic stability). The quenched incubations are pelleted by centrifugation (10′000 g, 5 min.) An aliquot of the supernatant is assayed by LC-MS/MS for the amount of parent compound.
The half-life (t1/2 INVITRO) is determined by the slope of the semilogarithmic plot of the concentration-time profile. The intrinsic clearance (CL_INTRINSIC) is calculated by considering the amount of protein in the incubation: CL_INTRINSIC [μl/min/mg protein]=(ln 2/(half-life [min]*protein content [mg/ml]))*1′000.

Where [4] appears, read: recombinant human DPPI, substrate Gly-Arg-AMC, pH 6.0, read-out: Inhibition of DPPI IC50.
Setting [5] is: Table 14, compounds examined in X-ray crystallography, read-out: CatC IC50.

recombinant human DPPI (Cathepsin C), sequence (P53634 231-394): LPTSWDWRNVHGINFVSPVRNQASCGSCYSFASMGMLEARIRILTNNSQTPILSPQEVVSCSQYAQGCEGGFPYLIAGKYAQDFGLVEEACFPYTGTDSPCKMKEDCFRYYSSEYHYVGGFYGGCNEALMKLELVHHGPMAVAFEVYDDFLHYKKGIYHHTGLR
recombinant human DPPI (Cathepsin C), sequence (P53634 25-134): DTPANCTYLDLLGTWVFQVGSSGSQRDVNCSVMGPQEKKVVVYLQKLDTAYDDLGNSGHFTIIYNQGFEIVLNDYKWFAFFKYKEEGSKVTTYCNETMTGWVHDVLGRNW
recombinant human DPPI (Cathepsin C), sequence (P53634 395-463): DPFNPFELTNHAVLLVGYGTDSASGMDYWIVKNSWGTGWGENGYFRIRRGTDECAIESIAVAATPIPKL

By IC50 is commonly meant the concentration at which inhibition is half-maximal. Turning to `N#C[C@H](Cc1ccc(-c2ccc3c(c2)C2(CCNCC2)CC3)cc1F)NC(=O)[C@H]1N[C@@H]2CC[C@H]1C2` [Example 2], the results for the IC50 in series [1] (setting [4]) and in series [2] were 0.6 nM and 6.8 nM, respectively. For the same compound, the half-life at 1 μM in series [3] was above 2.17 h.

On to `N#C[C@H](Cc1ccc(-c2ccc3c(c2)C2(CCNCC2)C(=O)N3)cc1F)NC(=O)[C@H]1N[C@@H]2CC[C@H]1C2` [Example 3], for which the results for the IC50 in series [1] (setting [4]) and in series [2] were 0.3 nM and 503 nM, respectively. Also, in series [3], the half-life at 1 μM is above 2.17 h.

With `CN1C(=O)C2(CCNCC2)c2cc(-c3ccc(C[C@@H](C#N)NC(=O)[C@H]4N[C@@H]5CC[C@H]4C5)c(F)c3)ccc21` [Example 4], the IC50 in series [1] (setting [4]) was found to be 0.4 nM; in series [2] it was 91 nM. In series [3], the half-life at 1 μM was above 2.17 h.

On to `CN1CCC2(CC1)C(=O)N(C)c1ccc(-c3ccc(C[C@@H](C#N)NC(=O)[C@H]4N[C@@H]5CC[C@H]4C5)c(F)c3)cc12` [Example 5], for which the IC50 was 0.6 nM in series [1] (setting [4]) and 2.3 nM in series [2]. Besides, the half-life at 1 μM in series [3] is above 2.17 h.

Consider `CN1CCC2(CC1)C(=O)Nc1ccc(-c3ccc(C[C@@H](C#N)NC(=O)[C@H]4N[C@@H]5CC[C@H]4C5)c(F)c3)cc12` [Example 6], for which the values for the IC50 in series [1] (setting [4]) and in series [2] were 0.2 nM and 22.2 nM, respectively. Also, in series [3], the half-life at 1 μM came out at 1.83 h.

As for `N#C[C@H](Cc1ccc(-c2ccc3c(c2)C2(CCNCC2)OC3=O)cc1F)NC(=O)[C@H]1N[C@@H]2CC[C@H]1C2` [Example 7], the IC50 in series [1] (setting [4]) amounted to 0.5 nM; in series [2] it was 34.9 nM. Besides, the half-life at 1 μM in series [3] was above 2.17 h.

As to `CN1CCC2(CC1)OC(=O)c1ccc(-c3ccc(C[C@@H](C#N)NC(=O)[C@H]4N[C@@H]5CC[C@H]4C5)c(F)c3)cc12` [Example 8], the IC50 came to 0.7 nM in series [1] (setting [4]) and 0.8 nM in series [2]. Also, the half-life at 1 μM in series [3] worked out at 1.23 h.

Take `N#C[C@H](Cc1ccc(-c2ccc3c(c2)C2(CCNC2)OC3=O)cc1F)NC(=O)[C@H]1N[C@@H]2CC[C@H]1C2` (some centres unmarked) [Example 9]: the IC50 in series [1] (setting [4]) turned out to be 0.5 nM; in series [2] it was 21.5 nM. In addition, in series [3], the half-life at 1 μM is above 2.17 h.

As for `CN1CCC2(C1)OC(=O)c1ccc(-c3ccc(C[C@@H](C#N)NC(=O)[C@H]4N[C@@H]5CC[C@H]4C5)c(F)c3)cc12` (some centres unmarked) [Example 10], the IC50 amounted to 0.6 nM in series [1] (setting [4]) and 1.4 nM in series [2]. In addition, in series [3], the half-life at 1 μM was above 2.17 h.

For `N#C[C@H](Cc1ccc(-c2ccc3c(c2)C2(CNC2)OC3=O)cc1F)NC(=O)[C@H]1N[C@@H]2CC[C@H]1C2` [Example 11], the IC50 is 0.7 nM in series [1] (setting [5]), 0.7 nM in series [1] (setting [4]) and 10.7 nM in series [2]. Moreover, the half-life at 1 μM in series [3] is above 2.17 h.

For `CN1CC2(C1)OC(=O)c1ccc(-c3ccc(C[C@@H](C#N)NC(=O)[C@H]4N[C@@H]5CC[C@H]4C5)c(F)c3)cc12` [Example 12], the half-maximal inhibitory concentration (IC50) came to 0.5 nM in series [1] (setting [4]) and 1.2 nM in series [2]. Also, the half-life at 1 μM in series [3] turned out to be 0.767 h.

As to `N#C[C@H](Cc1ccc(-c2ccc3c(c2)C2(CCNCC2)OC3)cc1F)NC(=O)[C@H]1N[C@@H]2CC[C@H]1C2` [Example 13], the 50% inhibitory concentration (IC50) in series [1] (setting [4]) came to 0.6 nM; in series [2] it was 16.7 nM. Also, the half-life at 1 μM in series [3] was above 2.17 h.

As to `CN1CCC2(CC1)OCc1ccc(-c3ccc(C[C@@H](C#N)NC(=O)[C@H]4N[C@@H]5CC[C@H]4C5)c(F)c3)cc12` [Example 14], the half-inhibitory concentration (IC50) in series [1] (setting [4]) came to 1 nM; in series [2] it was 1.1 nM. Also, the half-life at 1 μM in series [3] is above 2.17 h.

With `CN1CCC2(CCc3ccc(-c4ccc(C[C@@H](C#N)NC(=O)[C@H]5N[C@@H]6CC[C@H]5C6)c(F)c4)cc32)CC1` [Example 15], the IC50 in series [1] (setting [4]) came to 0.5 nM; in series [2] it was 0.2 nM. The half-life at 1 μM in series [3] is above 2.17 h.

As to `N#C[C@H](Cc1ccc(-c2ccc3c(c2)C2(CCNC2)C(=O)N3)cc1F)NC(=O)[C@H]1N[C@@H]2CC[C@H]1C2` (some centres unmarked) [Example 16], the 50% inhibitory concentration (IC50) is 0.5 nM in series [1] (setting [5]), 0.5 nM in series [1] (setting [4]) and 73.8 nM in series [2]. The half-life at 1 μM in series [3] is above 2.17 h.

Regarding `CN1CCCC2(C1)C(=O)N(C)c1ccc(-c3ccc(C[C@@H](C#N)NC(=O)[C@H]4N[C@@H]5CC[C@H]4C5)c(F)c3)cc12` (some centres unmarked) [Example 17], the figures for the half-inhibitory concentration (IC50) in series [1] (setting [4]) and in series [2] were 1.6 nM and 0.6 nM, respectively. In addition, in series [3], the half-life at 1 μM was 1 h.

For the compound `N#C[C@H](Cc1ccc(-c2cc3c(cn2)C(=O)OC32CCNCC2)cc1F)NC(=O)[C@H]1N[C@@H]2CC[C@H]1C2` [Example 18], the IC50 in series [1] (setting [4]) was 1.6 nM; in series [2], 220 nM. Also, the half-life at 1 μM in series [3] is above 2.17 h.

In the case of `CN1CCC2(CC1)OC(=O)c1cnc(-c3ccc(C[C@@H](C#N)NC(=O)[C@H]4N[C@@H]5CC[C@H]4C5)c(F)c3)cc12` [Example 19], the results for the IC50 in series [1] (setting [4]) and in series [2] were 1 nM and 5 nM, respectively. For the same compound, the half-life at 1 μM in series [3] is above 2.17 h.

Take `CN1CCC2(C1)OC(=O)c1cnc(-c3ccc(C[C@@H](C#N)NC(=O)[C@H]4N[C@@H]5CC[C@H]4C5)c(F)c3)cc12` (some centres unmarked) [Example 20]: the half-inhibitory concentration (IC50) in series [1] (setting [4]) was determined as 1.6 nM; in series [2], 23.2 nM. In series [3], the half-life at 1 μM was above 2.17 h.

For `CN1CCC2(CC1)OC(=O)c1ncc(-c3ccc(C[C@@H](C#N)NC(=O)[C@H]4N[C@@H]5CC[C@H]4C5)c(F)c3)cc12` [Example 21], the IC50 worked out at 1.4 nM in series [1] (setting [4]) and 63.7 nM in series [2]. Further, the half-life at 1 μM in series [3] was above 2.17 h.

For `N#C[C@H](Cc1ccc(-c2cc3c(cn2)C(=O)OC32CCN(C3COC3)CC2)cc1F)NC(=O)[C@H]1N[C@@H]2CC[C@H]1C2` [Example 22], the IC50 in series [1] (setting [4]) came out at 4.8 nM; in series [2], 15.7 nM. In series [3], the half-life at 1 μM is above 2.17 h.
